What was measured:
Splenocytes = assay: Splenic cell proliferation assay (anti-IgM stimulated); assay type: cell-based; settings: Splenocyte; CD1 mouse splenocytes, 1 h pre-treatment, 2.5 ug/ml anti-IgM F(ab')2 for 72 h, Cell Titer-Glo; read-out: EC50 (inhibition of splenic cell proliferation)
Protocol: Proliferation of splenocytes in response to anti-IgM can be blocked by inhibition of Btk.
Splenocytes were obtained from 6 week old male CD1 mice (Charles River Laboratories Inc.). Mouse spleens were manually disrupted in PBS and filtered using a 70 um cell strainer followed by ammonium chloride red blood cell lysis. Cells were washed, resuspended in Splenocyte Medium (HyClone RPMI supplemented with 10% heat-inactivated FBS, 0.5× non-essential amino acids, 10 mM HEPES, 50 uM beta mercaptoethanol) and incubated at 37° C., 5% CO2 for 2 h to remove adherent cells. Suspension cells were seeded in 96 well plates at 50,000 cells per well and incubated at 37° C., 5% CO2 for 1 h. Splenocytes were pre-treated in triplicate with 10,000 nM curves of Formula 1 compounds for 1 h, followed by stimulation of cell proliferation with 2.5 ug/ml anti-IgM F(ab′)2 (Jackson ImmunoResearch) for 72 h. Cell proliferation was measured by Cell Titer-Glo Luminescent Assay (Promega). EC50 values (50% proliferation in the presence of compound as compared to vehicle treated controls) were calculated from dose response compound curves using GraphPad Prism Software EC50 values are reported in Table 3: […]

human BTK kinase (hBTK) = target: T1, human BTK kinase (hBTK) (Homo sapiens, UniProt Q06187); assay: BTK kinase inhibition assay (Kinase Profiler radiometric protein kinase assay, Eurofins); assay type: biochemical; settings: radiometric [γ-33P-ATP] assay, 40 minutes at room temperature, 250 μM substrate
T1 construct: purchased Eurofins Pharma Discovery Services UK Limited (contract assay, Kinase Profiler)
Protocol: In vitro potency of selected compound was defined against human BTK kinase (hBTK) using Kinase Profiler radiometric protein kinase assays performed at Eurofins Pharma Discovery Services UK Limited.
hBTK kinase is diluted in buffer and all compounds were prepared to 50× final assay concentration in 100% DMSO. This working stock of the compound was added to the assay well as the first component in the reaction, followed by the remaining components as detailed in the assay protocol listed above. The reaction was initiated by the addition of the MgATP mix. The kinase reaction was performed at room temperature for 40 minutes in presence of 250 μM substrate, 10 mM MgAcetate, [γ-33P-ATP] (specific activity approx. 500 cpm/pmol, concentration as required) and variable test article concentrations. The ATP concentrations in the assays were with 15 μM of the apparent. The reaction was stopped by the addition of 3% phosphoric acid solution. 10 μL of the reaction is then spotted onto a P30 filtermat and washed three times for 5 minutes in 75 mM phosphoric acid and once in methanol prior to drying and scintillation counting. In addition positive control wells contain all components of the reaction, except the compound of interest; however, DMSO (at a final concentration of 2%) were included in these wells to control for solvent effects as well as blank wells contain all components of the reaction, with a reference inhibitor replacing the compound of interest. This abolishes kinase activity and establishes the base-line (0% kinase activity remaining).

[1] = test system: TMD-8 human activated B cell diffuse large B cell lymphoma cells; assay: TMD-8 survival assay; assay type: cell-based; settings: TMD8, TMD-8 cells, 72 h treatment, Cell Titer-Glo
Protocol: BTK inhibitors affect the survival of B-cell lymphomas. TMD-8 human activated B cell diffuse large B cell lymphoma cells were seeded in 96-well plates at a density of 20,000 cells/well in HyClone RPMI supplemented with 10% FBS (Fisher)/1% Penicillin/Streptomycin (HyClone) and incubated at 37° C., 5% CO2. Cells were treated in triplicate with 1,000 nM or 100 nM curves of compounds for 72 h. Cell survival was measured by Cell Titer-Glo Luminescent Assay (Promega). EC50 values (50% proliferation in the presence of compound as compared to vehicle treated controls) were calculated from dose response compound curves using GraphPad Prism Software.

T1 sequence (Q06187 whole entry): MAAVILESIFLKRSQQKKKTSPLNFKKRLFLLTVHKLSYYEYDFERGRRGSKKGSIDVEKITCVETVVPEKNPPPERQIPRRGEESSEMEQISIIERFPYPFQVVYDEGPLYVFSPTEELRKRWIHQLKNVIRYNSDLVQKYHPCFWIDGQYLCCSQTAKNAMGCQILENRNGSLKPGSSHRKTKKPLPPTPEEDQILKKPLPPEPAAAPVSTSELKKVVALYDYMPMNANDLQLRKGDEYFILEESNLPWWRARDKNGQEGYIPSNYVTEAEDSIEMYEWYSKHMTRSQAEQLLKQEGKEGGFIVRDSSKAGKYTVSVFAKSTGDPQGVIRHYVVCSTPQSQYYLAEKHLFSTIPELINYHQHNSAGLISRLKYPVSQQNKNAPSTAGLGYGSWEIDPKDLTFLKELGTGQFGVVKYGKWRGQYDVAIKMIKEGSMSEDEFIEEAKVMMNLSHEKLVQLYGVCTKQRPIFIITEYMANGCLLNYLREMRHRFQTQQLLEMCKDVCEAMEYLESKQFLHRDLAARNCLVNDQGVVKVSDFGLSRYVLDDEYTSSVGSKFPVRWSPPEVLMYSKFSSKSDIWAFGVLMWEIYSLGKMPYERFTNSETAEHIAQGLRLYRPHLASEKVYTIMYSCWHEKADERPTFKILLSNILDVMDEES

**Q.** For `C=C(F)C(=O)N[C@H]1C[C@@H](n2nc(-c3ccc(Oc4cc(F)cc(OCc5cnc(C)nc5)c4)cc3)c3c(N)ncnc32)C1` [Compound 35], which EC50 (Splenocytes) is on record?
**A.** The EC50 was 1 nM.

**Q.** How did the IC50 (human BTK kinase (hBTK)) turn out when `C=CC(=O)N1CCC[C@@H](n2nc(-c3ccc(Oc4cc(F)cc(OCc5cnc(C)nc5)c4)cc3)c3c(N)ncnc32)C1` [Compound 12] was run?
**A.** The IC50 was 6 nM.

**Q.** And the EC50 (Splenocytes)?
**A.** The EC50 was 3.1 nM.

**Q.** What about the EC50 [1] of the same molecule?
**A.** Its EC50 is 16.5 nM.

**Q.** What does the source list for `C=CC(=O)N[C@H]1CC[C@@H](n2nc(-c3ccc(Oc4cc(F)cc(OCc5cnc(C)nc5)c4)cc3)c3c(N)ncnc32)CC1` [Compound 29]?
**A.** IC50 (human BTK kinase (hBTK)): 8 nM; EC50 (Splenocytes): 1 nM; EC50 [1]: 6.6 nM

**Q.** With `Cc1ncc(COc2cc(F)cc(Oc3ccc(-c4nn([C@@H]5CCCN(C#N)C5)c5ncnc(N)c45)cc3)c2)cn1` [Compound 8] as the molecule, how does the IC50 (human BTK kinase (hBTK)) read?
**A.** Its IC50 is 11 nM.

**Q.** What about the EC50 (Splenocytes) of the same molecule?
**A.** Its EC50 is 4.6 nM.

**Q.** And the EC50 [1]?
**A.** Its EC50 is 13.5 nM.

**Q.** How did the IC50 (human BTK kinase (hBTK)) turn out when `C=CC(=O)N1CC(Cn2nc(-c3ccc(Oc4cc(F)cc(OCc5cnc(C)nc5)c4)cc3)c3c(N)ncnc32)C1` [Compound 23] was run?
**A.** Its IC50 is 9 nM.

**Q.** And the EC50 (Splenocytes)?
**A.** Its EC50 is 4.9 nM.

**Q.** And the EC50 [1]?
**A.** Its EC50 is 13.9 nM.

**Q.** What does the source list for `C=C(F)C(=O)N1CCC[C@@H](n2nc(-c3ccc(Oc4cc(F)cc(OCc5cnc(C)nc5)c4)cc3)c3c(N)ncnc32)C1` [Compound 20]?
**A.** IC50 (human BTK kinase (hBTK)): 6 nM; EC50 (Splenocytes): 2 nM; EC50 [1]: 8.6 nM

**Q.** Which results are given for `C=CS(=O)(=O)N1CC[C@@H](n2nc(-c3ccc(Oc4cc(F)cc(OCc5cnc(C)nc5)c4)cc3)c3c(N)ncnc32)C1` [Compound 19]?
**A.** IC50 (human BTK kinase (hBTK)): 7 nM; EC50 (Splenocytes): 13.4 nM; EC50 [1]: 53.3 nM

**Q.** `C#CC(=O)N1CCC[C@@H]1Cn1nc(-c2ccc(Oc3cc(F)cc(OCc4cnc(C)nc4)c3)cc2)c2c(N)ncnc21` [Compound 13] was tested. Which IC50 (human BTK kinase (hBTK)) did it give?
**A.** The IC50 was 35 nM.

**Q.** What about the EC50 (Splenocytes) of the same molecule?
**A.** The EC50 was 48.7 nM.

**Q.** What about the EC50 [1] of the same molecule?
**A.** The EC50 was 79.3 nM.

**Q.** What does the source list for `C=C(F)C(=O)N1CC[C@@H](n2nc(-c3ccc(Oc4cc(F)cc(OCc5cnc(C)nc5)c4)cc3)c3c(N)ncnc32)C1` [Compound 18]?
**A.** IC50 (human BTK kinase (hBTK)): 14 nM; EC50 (Splenocytes): 5.8 nM; EC50 [1]: 14.4 nM

**Q.** `C=C(F)C(=O)N1CCC[C@@H]1Cn1nc(-c2ccc(Oc3cc(F)cc(OCc4cnc(C)nc4)c3)cc2)c2c(N)ncnc21` [Compound 6] was tested. Which IC50 (human BTK kinase (hBTK)) did it give?
**A.** The IC50 was 55 nM.

**Q.** And the EC50 (Splenocytes)?
**A.** The EC50 was 11.5 nM.

**Q.** What about the EC50 [1] of the same molecule?
**A.** Its EC50 is 36.1 nM.

**Q.** What does the source list for `CC#CC(=O)N1CCC[C@@H](n2nc(-c3ccc(Oc4cc(F)cc(OCc5cnc(C)nc5)c4)cc3)c3c(N)ncnc32)C1` [Compound 11]?
**A.** IC50 (human BTK kinase (hBTK)): 10 nM; EC50 (Splenocytes): 1.5 nM; EC50 [1]: 13.1 nM

**Q.** Which IC50 (human BTK kinase (hBTK)) does the source give for `Cc1ncc(COc2cc(F)cc(Oc3ccc(-c4nn(C[C@H]5CCCN5C(=O)C5=CCC5)c5ncnc(N)c45)cc3)c2)cn1` [Compound 15] here?
**A.** The IC50 was 53 nM.

**Q.** What about the EC50 (Splenocytes) of the same molecule?
**A.** Its EC50 is 8.7 nM.

**Q.** And the EC50 [1]?
**A.** The EC50 was 56.1 nM.

**Q.** For `Cc1ncc(COc2cc(F)cc(Oc3ccc(-c4nn(C[C@H]5CCCN5C(=O)/C=C/CN(C)C)c5ncnc(N)c45)cc3)c2)cn1` [Compound 9], which IC50 (human BTK kinase (hBTK)) is on record?
**A.** Its IC50 is 40 nM.

**Q.** What about the EC50 (Splenocytes) of the same molecule?
**A.** The EC50 was 6.4 nM.

**Q.** What about the EC50 [1] of the same molecule?
**A.** The EC50 was 18.7 nM.

**Q.** With `CC#CC(=O)N[C@H]1CC[C@@H](n2nc(-c3ccc(Oc4cc(F)cc(OCc5cnc(C)nc5)c4)cc3)c3c(N)ncnc32)CC1` [Compound 30] as the molecule, how does the IC50 (human BTK kinase (hBTK)) read?
**A.** The IC50 was 9 nM.

**Q.** What about the EC50 (Splenocytes) of the same molecule?
**A.** The EC50 was 1 nM.

**Q.** What about the EC50 [1] of the same molecule?
**A.** The EC50 was 5.1 nM.

**Q.** Which IC50 (human BTK kinase (hBTK)) does the source give for `Cc1ncc(COc2cc(F)cc(Oc3ccc(-c4nn([C@@H]5CCCN(C(=O)/C=C/CN(C)C)C5)c5ncnc(N)c45)cc3)c2)cn1` [Compound 16] here?
**A.** Its IC50 is 7 nM.

**Q.** And the EC50 (Splenocytes)?
**A.** The EC50 was 4.1 nM.

**Q.** And the EC50 [1]?
**A.** Its EC50 is 12.1 nM.

**Q.** What does the source list for `CC#CC(=O)N(C)[C@H]1C[C@@H](n2nc(-c3ccc(Oc4cc(F)cc(OCc5cnc(C)nc5)c4)cc3)c3c(N)ncnc32)C1` [Compound 32]?
**A.** IC50 (human BTK kinase (hBTK)): 8 nM; EC50 (Splenocytes): 1.5 nM; EC50 [1]: 8.5 nM

**Q.** For `Cc1ncc(COc2cc(F)cc(Oc3ccc(-c4nn(C5CCN(C#N)CC5)c5ncnc(N)c45)cc3)c2)cn1` [Compound 33], which EC50 (Splenocytes) is on record?
**A.** Its EC50 is 47.3 nM.

**Q.** What about the EC50 [1] of the same molecule?
**A.** The EC50 was greater than 100 nM.

**Q.** Which results are given for `C=CC(=O)N1CCC(n2nc(-c3ccc(Oc4cc(F)cc(OCc5cnc(C)nc5)c4)cc3)c3c(N)ncnc32)CC1` [Compound 25]?
**A.** IC50 (human BTK kinase (hBTK)): 17 nM; EC50 (Splenocytes): 4.3 nM; EC50 [1]: 19.8 nM

**Q.** How did the EC50 (Splenocytes) turn out when `C=CC(=O)N1CC2(CC(n3nc(-c4ccc(Oc5cc(F)cc(OCc6cnc(C)nc6)c5)cc4)c4c(N)ncnc43)C2)C1` [Compound 34] was run?
**A.** Its EC50 is 1.5 nM.

Reference: patent US20180179210A1, “Inhibitors of the TEC Kinase Enzyme Family” (Pharmascience Inc., priority 2015, published 2018)
